In ChEMBL document CHEMBL1201862, “PubChem BioAssay data set” (2004) one finds EC50, IC50 and AC50 data, which are given here for 18 molecules.

Calls of active or inactive are those of the source.

Data set [1] deals with T1, Short transient receptor potential channel 4 (Mus musculus, UniProt Q9QUQ5).
T1 sequence (Q9QUQ5 whole entry): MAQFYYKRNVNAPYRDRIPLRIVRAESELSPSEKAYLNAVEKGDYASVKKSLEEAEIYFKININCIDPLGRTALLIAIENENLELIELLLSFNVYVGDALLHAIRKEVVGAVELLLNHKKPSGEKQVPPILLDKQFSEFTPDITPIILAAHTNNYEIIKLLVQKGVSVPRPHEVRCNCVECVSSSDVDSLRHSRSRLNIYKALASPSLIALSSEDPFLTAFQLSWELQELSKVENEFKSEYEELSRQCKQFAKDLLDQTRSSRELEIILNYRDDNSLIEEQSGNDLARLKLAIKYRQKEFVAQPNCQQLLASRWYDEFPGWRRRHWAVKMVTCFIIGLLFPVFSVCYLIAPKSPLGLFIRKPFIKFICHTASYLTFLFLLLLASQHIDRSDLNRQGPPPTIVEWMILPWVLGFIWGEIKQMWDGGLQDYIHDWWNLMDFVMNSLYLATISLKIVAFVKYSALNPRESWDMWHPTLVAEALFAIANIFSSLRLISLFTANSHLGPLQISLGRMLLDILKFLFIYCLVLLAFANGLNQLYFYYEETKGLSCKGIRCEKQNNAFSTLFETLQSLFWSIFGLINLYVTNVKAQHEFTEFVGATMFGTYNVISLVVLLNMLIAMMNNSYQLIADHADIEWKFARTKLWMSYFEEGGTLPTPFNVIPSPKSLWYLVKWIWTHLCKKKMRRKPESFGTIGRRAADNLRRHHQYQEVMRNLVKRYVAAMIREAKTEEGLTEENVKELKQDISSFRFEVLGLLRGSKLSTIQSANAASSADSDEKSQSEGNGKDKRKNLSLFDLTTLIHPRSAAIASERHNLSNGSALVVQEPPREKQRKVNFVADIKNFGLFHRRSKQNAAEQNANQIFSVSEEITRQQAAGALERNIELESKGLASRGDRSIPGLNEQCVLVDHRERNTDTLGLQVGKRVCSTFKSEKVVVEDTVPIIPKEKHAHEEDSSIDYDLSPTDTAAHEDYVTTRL
The experiment in a line: mouse TRPC4 channel inhibitors, dose response, cell-based, HEK293 TRPC4/mu-opioid, Fluo-4 calcium (AID 434942).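 Note: potency of inhibitors blocking the TRPC4 calcium response.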 The class given is functional.

Data set [2] has as its target Beta-2 adrenergic receptor (Homo sapiens, UniProt P07550). Kind of data set: beta2AR agonists driving receptor internalization, dose response, cell-based, FAP fluorogen, flow cytometry, cherry pick 1 (AID 588763). In kind it is functional.
The next data set deals with T2, Aminopeptidase N (Plasmodium falciparum FcB1/Columbia, UniProt O96935).
T2 sequence (O96935 whole entry): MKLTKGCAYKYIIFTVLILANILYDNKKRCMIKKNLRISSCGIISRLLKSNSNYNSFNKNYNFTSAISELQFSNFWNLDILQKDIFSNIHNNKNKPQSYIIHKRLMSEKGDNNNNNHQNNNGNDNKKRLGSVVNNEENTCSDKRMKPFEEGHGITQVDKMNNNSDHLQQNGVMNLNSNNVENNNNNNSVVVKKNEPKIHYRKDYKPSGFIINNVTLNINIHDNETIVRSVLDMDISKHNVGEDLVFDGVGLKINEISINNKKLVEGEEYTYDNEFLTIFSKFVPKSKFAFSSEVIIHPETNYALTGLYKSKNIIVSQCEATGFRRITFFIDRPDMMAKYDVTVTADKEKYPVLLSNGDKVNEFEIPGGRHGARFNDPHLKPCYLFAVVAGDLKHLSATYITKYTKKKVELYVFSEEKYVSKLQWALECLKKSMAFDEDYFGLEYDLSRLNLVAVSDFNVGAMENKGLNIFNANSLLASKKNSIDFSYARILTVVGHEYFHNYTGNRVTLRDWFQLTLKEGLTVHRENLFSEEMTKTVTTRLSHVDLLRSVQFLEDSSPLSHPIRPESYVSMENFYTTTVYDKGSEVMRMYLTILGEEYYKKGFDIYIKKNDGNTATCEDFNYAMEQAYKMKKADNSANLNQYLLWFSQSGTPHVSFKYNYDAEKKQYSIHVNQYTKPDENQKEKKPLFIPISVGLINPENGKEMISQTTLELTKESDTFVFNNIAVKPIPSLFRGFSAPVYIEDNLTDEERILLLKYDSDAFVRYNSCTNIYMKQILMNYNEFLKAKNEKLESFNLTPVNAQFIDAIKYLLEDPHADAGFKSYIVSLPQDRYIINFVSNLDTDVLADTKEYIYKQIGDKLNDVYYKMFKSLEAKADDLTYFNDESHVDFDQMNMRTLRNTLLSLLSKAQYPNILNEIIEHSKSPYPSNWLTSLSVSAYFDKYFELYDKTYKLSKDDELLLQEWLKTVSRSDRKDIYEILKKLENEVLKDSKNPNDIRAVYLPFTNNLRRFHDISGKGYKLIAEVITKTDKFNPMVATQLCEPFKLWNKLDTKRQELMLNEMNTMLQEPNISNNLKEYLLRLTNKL
Kind of data set: P. falciparum M1AAP inhibitors, biochemical, fluorogenic H-Leu-NHMec substrate, 1536-well (AID 1445). Details: species or system Plasmodium falciparum 3D7, 3D7.

The target in data set [3] is Voltage-dependent T-type calcium channel subunit alpha-1H (Homo sapiens, UniProt O95180). In kind it is functional.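 Note: channel activity triggered by adding a high calcium stimulation buffer.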
Voltage-dependent T-type calcium channel subunit alpha-1H, sequence (O95180 whole entry): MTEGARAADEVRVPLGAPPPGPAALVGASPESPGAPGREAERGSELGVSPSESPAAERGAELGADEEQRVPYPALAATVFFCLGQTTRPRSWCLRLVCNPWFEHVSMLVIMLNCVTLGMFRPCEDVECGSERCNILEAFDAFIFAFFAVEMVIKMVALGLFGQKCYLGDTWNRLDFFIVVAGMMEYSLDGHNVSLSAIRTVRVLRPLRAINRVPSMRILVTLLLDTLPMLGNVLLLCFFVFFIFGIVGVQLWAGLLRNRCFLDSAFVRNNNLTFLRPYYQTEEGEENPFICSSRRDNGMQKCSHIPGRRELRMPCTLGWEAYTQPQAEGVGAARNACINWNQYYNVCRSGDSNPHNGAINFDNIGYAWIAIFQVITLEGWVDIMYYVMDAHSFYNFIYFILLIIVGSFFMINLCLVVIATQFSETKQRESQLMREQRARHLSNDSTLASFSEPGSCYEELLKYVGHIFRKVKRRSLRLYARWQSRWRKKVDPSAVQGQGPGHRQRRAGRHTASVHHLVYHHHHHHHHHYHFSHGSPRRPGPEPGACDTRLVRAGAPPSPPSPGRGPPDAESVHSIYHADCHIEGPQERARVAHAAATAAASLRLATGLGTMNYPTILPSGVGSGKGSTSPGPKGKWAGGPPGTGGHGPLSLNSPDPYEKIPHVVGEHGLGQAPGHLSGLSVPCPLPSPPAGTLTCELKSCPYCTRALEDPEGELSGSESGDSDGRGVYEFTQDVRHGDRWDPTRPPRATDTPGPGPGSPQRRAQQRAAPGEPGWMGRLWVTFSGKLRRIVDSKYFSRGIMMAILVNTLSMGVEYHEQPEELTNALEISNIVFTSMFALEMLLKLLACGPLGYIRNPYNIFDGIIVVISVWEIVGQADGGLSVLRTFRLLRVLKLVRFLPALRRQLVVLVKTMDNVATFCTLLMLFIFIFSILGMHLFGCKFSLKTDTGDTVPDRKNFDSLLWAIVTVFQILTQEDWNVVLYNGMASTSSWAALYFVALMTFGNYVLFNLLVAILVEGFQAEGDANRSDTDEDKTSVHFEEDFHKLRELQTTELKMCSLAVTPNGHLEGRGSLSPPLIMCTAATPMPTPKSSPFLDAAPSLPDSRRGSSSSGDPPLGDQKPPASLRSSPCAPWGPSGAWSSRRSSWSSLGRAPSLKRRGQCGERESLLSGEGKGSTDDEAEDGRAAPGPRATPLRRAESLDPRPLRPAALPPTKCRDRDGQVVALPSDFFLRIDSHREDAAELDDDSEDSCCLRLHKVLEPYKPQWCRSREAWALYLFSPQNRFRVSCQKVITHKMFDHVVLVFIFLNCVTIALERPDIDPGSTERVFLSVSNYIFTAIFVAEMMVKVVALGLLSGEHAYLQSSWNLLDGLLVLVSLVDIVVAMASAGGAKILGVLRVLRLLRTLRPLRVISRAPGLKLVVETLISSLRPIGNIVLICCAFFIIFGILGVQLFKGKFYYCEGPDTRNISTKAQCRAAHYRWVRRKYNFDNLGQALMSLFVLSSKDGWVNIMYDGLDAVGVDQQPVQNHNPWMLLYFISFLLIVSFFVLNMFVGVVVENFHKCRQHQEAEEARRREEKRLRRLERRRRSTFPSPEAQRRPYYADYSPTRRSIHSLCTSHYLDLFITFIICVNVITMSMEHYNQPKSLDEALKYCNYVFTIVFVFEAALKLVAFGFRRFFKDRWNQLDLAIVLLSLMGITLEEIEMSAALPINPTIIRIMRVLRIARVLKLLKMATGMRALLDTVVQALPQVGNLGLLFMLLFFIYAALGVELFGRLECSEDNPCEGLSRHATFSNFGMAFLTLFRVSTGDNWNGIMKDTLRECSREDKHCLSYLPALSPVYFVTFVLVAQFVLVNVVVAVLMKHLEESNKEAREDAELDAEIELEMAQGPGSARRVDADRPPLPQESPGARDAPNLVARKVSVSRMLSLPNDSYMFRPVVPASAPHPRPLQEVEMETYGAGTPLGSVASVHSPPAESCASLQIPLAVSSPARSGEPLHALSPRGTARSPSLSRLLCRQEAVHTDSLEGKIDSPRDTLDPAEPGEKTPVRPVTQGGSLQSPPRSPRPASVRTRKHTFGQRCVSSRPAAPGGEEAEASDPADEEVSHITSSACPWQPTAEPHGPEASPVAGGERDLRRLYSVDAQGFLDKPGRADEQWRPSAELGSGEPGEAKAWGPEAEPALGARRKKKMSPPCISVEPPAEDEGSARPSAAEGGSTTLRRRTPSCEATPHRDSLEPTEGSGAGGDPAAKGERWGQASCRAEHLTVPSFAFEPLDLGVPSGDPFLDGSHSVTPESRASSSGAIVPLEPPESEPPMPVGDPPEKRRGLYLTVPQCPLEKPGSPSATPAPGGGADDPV
Another data set concerns the target T3, Leucine aminopeptidase (Plasmodium falciparum 3D7, UniProt Q8IL11).
T3 sequence (Q8IL11 whole entry): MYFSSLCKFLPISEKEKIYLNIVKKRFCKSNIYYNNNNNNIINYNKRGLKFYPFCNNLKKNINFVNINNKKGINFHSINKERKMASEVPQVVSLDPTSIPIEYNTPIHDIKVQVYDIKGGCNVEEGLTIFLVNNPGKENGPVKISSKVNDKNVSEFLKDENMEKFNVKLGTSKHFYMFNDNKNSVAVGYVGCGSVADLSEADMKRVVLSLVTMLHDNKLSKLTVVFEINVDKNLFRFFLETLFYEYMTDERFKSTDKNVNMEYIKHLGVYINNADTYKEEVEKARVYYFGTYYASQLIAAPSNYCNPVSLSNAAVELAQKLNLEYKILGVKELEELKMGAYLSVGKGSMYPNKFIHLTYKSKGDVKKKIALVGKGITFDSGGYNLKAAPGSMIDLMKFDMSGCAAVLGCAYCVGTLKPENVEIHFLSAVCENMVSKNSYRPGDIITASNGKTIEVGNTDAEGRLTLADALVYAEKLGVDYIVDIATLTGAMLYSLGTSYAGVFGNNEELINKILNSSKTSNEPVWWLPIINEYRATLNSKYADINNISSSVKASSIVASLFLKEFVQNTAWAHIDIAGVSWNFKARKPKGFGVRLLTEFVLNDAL
The experiment in a line: P. falciparum M17LAP inhibitors, primary screen, biochemical, fluorogenic H-Leu-NHMec substrate, 1536-well (AID 1619). The class given is functional.

Data set [4] concerns the target DNA dC->dU-editing enzyme APOBEC-3G (Homo sapiens, UniProt Q9HC16). Kind of data set: Dose Response confirmation of small molecule APOBEC3G DNA Deaminase Inhibitors via a fluorescence-based single-stranded DNA deaminase assay. [Related pubchem assays (depositor defined):AID493012, AID493028]. The class given is functional.
In the next data set the target is Cytochrome P450 2C9 (Homo sapiens, UniProt P11712).
Cytochrome P450 2C9, sequence (P11712 whole entry): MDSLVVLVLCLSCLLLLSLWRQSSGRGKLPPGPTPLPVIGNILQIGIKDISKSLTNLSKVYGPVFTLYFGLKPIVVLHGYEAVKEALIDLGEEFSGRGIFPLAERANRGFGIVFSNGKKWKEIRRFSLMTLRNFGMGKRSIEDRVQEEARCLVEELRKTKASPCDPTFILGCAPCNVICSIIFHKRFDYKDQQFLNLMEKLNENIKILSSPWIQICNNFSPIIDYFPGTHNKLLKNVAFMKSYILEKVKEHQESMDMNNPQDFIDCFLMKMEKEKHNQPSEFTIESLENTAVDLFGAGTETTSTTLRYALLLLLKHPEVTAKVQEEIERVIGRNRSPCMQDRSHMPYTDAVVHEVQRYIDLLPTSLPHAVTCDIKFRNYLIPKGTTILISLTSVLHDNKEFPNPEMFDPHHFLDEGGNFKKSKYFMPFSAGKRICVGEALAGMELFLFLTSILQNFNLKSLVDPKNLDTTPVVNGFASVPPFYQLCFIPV
In data set [5] the test system is BJ. Kind of data set: cytotoxicity toward BJ-TERT-LT-ST fibroblasts, dose response, cell-based, RAS-independent, luminescence (AID 1935).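 Note: BJ fibroblasts immortalized with TERT plus LT and ST oncogenes.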 In kind it is functional. The note with it: Homo sapiens.
Data set [6] has as its system BJ. The experiment in a line: cytotoxicity toward BJ-TERT fibroblasts, dose response, cell-based, RAS-independent, luminescence (AID 1933). The note with it: Homo sapiens. In kind it is functional.
A further data set relates to HEK293. Kind of data set: cells. The note with it: Homo sapiens.
Another data set deals with Tumor necrosis factor (Homo sapiens, UniProt P01375). The experiment in a line: TNFa-triggered NF-kB activation inhibitors, SAR follow-up, cell-based, revised (AID 2337). The class given is functional.
Tumor necrosis factor, sequence (P01375 whole entry): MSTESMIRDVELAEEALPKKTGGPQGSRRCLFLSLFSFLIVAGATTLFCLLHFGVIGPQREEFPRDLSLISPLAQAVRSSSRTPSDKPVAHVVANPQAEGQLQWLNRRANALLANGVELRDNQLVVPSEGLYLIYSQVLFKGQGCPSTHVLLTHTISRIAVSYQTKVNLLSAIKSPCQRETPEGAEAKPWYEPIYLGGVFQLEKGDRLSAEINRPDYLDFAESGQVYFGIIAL
Data set [7] relates to BJ. The experiment in a line: cells. In kind it is functional, cell-based. The note with it: Homo sapiens.
Data set [8] addresses T4, Nucleotide-binding oligomerization domain-containing protein 1 (Homo sapiens, UniProt Q9Y239).
T4 sequence (Q9Y239 whole entry): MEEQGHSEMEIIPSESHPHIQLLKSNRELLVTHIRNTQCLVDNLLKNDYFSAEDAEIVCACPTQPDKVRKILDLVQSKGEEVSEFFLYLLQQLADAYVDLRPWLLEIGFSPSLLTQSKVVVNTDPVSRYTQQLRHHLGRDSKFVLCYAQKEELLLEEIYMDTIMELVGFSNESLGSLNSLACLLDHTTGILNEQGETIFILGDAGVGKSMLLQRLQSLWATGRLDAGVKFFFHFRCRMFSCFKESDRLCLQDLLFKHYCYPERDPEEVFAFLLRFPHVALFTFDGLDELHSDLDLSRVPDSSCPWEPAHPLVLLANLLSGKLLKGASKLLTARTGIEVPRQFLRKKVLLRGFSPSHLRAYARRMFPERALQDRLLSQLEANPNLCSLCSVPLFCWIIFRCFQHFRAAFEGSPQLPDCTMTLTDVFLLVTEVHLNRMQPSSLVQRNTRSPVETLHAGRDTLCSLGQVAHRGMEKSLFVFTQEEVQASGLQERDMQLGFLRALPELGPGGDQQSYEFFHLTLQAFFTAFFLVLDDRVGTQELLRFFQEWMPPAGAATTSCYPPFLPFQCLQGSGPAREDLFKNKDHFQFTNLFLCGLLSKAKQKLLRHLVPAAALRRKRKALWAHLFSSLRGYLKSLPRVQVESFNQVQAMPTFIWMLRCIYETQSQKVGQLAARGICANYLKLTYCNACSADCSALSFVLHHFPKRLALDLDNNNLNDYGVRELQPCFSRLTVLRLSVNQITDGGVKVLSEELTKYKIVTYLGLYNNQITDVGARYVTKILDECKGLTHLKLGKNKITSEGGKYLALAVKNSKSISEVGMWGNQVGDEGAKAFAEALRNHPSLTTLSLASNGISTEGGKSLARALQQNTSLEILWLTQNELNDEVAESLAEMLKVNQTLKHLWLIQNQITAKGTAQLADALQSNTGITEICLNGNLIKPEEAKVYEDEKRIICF
The experiment in a line: NOD1 signaling inhibitors, SAR follow-up, revised (AID 2333). The class given is functional.

A short description of data set [9]: cytotoxicity toward DRD oncogenic fibroblasts, dose response, cell-based, non-viral oncogenic, luminescence (AID 1934). The class given is functional. The conditions noted are these: Homo sapiens.
Data set [10] can be described thus: Luminescence Cell-Based Dose Retest to Confirm Inhibitors of Cancer Stem Cells. [Related pubchem assays (depositor defined):AID2717, AID2721]. The conditions noted are these: Homo sapiens. In kind it is functional.
A further data set addresses Albumin (Bos taurus, UniProt P02769). The experiment in a line: Counterscreen for inhibitors of T-cell receptor (TCR)-CD3 interaction: Fluorescence-based biochemical high throughput dose response assay to identify inhibitors of T-cell receptor (TCR)-CD3 interaction using a TAMRA-labeled BSA probe. In kind it is functional.

Beta-2 adrenergic receptor, sequence (P07550 whole entry): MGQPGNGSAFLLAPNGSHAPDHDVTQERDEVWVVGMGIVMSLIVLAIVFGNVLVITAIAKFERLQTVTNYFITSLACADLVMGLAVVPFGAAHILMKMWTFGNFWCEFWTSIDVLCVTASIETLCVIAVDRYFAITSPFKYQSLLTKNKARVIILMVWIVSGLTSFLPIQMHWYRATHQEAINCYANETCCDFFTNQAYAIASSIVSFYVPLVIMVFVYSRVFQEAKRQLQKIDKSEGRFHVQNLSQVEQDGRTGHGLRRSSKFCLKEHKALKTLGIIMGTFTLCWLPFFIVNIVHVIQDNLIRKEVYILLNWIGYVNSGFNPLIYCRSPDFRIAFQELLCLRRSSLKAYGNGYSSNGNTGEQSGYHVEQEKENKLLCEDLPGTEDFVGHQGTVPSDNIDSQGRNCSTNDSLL
Albumin, sequence (P02769 whole entry): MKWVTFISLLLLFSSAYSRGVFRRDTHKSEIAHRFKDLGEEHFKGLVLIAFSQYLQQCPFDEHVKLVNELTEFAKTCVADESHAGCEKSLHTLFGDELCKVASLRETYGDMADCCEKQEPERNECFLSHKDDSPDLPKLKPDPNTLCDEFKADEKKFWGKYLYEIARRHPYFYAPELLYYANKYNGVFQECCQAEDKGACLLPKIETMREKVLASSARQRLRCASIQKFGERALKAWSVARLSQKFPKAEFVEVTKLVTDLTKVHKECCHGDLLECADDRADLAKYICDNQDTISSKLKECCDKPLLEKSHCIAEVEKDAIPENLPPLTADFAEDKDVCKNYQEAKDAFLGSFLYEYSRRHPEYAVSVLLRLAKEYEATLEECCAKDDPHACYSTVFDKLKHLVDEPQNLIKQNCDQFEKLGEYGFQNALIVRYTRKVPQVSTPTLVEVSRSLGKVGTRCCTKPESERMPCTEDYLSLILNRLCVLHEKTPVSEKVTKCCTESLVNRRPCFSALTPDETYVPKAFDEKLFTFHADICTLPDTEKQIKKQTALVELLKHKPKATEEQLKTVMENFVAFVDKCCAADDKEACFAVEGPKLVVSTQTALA
DNA dC->dU-editing enzyme APOBEC-3G, sequence (Q9HC16 whole entry): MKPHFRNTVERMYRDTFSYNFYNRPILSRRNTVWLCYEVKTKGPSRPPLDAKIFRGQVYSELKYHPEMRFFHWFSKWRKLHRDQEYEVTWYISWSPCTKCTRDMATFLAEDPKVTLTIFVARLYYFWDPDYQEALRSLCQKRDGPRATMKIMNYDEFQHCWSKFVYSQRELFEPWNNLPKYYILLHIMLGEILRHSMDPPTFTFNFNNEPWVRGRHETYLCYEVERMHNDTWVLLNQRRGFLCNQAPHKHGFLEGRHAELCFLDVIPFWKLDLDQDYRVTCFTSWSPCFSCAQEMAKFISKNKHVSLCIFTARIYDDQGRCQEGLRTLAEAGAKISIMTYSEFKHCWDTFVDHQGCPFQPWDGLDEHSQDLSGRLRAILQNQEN

Consider `CC(C)(c1ccccc1)c1ccc(OCCCNCCO)cc1`, for which, in data set [1], the EC50 is 4.22 µM (active).

On to `CCc1ccc(CNC(=O)c2ccc(NC(=O)C3=CSCCO3)cc2)cc1`, for which the concentration giving a half-maximal response (EC50) in [2] is 0.0949 µM (active).

As to `COc1ccc(OC)c(C2C3=C(O)CCCC3=NC(C)=C2C(=O)Nc2cccnc2)c1` (stereo not given), the IC50 at Aminopeptidase N is 52.9 µM (active).

For `O=Cc1cn(CC(=O)N2CCCc3ccccc32)c2ccccc12`, at Aminopeptidase N, the half-maximal inhibitory concentration (IC50) was 22.8 µM (active).

For `CCCC(c1nnnn1Cc1ccco1)N1CCN(c2cc(Cl)ccc2C)CC1` (stereo not given), the EC50 in [3] is 0.728 µM (active).

With `CCn1c(SCc2nc(-c3ccccc3)no2)nc2ccccc21`, the EC50 in data set [3] was 331 µM (active).

In the case of `COCCn1c(SCc2cc(C(C)=O)ccc2OC)nc2cc(Cl)ccc2c1=O`, the EC50 in data set [1] is 3.35 µM (active).

As to `CCC(=O)Nc1ccc(-c2nn3c(C)nnc3s2)cc1C`, the EC50 in data set [2] is 3.12 µM (active).

For the molecule `Clc1ccc(CN2C3=NCCN3c3ccccc32)cc1Cl`, the EC50 in data set [1] is 1.19 µM (active).

For the molecule `CN(C)S(=O)(=O)N(CC(=O)Nc1ccc2ccccc2c1)c1ccccc1`, the EC50 in data set [3] was 3.79 µM (active).

Take `Cc1c(C(c2ccccc2Cl)c2c(O)oc3ccccc3c2=O)c(=O)n(-c2ccccc2)n1C` (stereo not given): the IC50 at Aminopeptidase N is 77.1 µM (active).

For `Sc1nnc(-c2ccco2)[nH]1`, the IC50 at Leucine aminopeptidase was 11 µM (active); in data set [4], 12 µM (active).

In the case of `CC1(C)CC2CC(C)(CN2C(=O)c2cc(-c3ccc(O)cc3)on2)C1` (stereo not given), the EC50 in [1] was 5.31 µM (active).

For the molecule `O=C(NCc1ccc2c(c1)OCO2)C1CC(c2cccc(Br)c2)=NO1` (stereo not given), on Cytochrome P450 2C9, the AC50 result was “inconclusive”. Also, in data set [3], the EC50 is 1.96 µM (active).

On to `O=C(Nc1ccc(S(=O)(=O)N2CCCCC2)cc1)c1ccc(CN2CCc3ccccc3C2)cc1`, for which the concentration giving a half-maximal response (EC50) is > 150 µM (not active) in the data set on BJ [5], 23.9 µM (active) in the data set on BJ [6], 51.8 µM (active) with BJ [7] and 22 µM (active) in data set [9]. Besides, the IC50 in the data set with HEK293 is 19.5 µM (active); at Tumor necrosis factor, 0.616 µM (active); in data set [8], 0.432 µM (active).

Regarding `COc1ccc(NC(=O)c2ccc(CN3CCCCC3)cc2)cc1`, the IC50 (in the data set with HEK293; at Tumor necrosis factor; in data set [8]) was > 20 µM (inactive) in each case.

For the molecule `O=C(CN1CCCCC1)N1c2ccccc2Oc2ccccc21`, the EC50 in data set [1] was 6.68 µM (active).

Regarding `O=C(CSc1nnc(-c2ccccc2O)n1Cc1ccccc1)NNC(=O)c1ccccc1O`, the half-maximal activity concentration (AC50) in [10] is 7.6 µM (active). The IC50 is 130 µM (active) at Aminopeptidase N and > 94.1 µM (inactive) on Albumin.
